These are literature values, as cited in publication PMC3762478 (Bioorganic & medicinal chemistry letters, 2013).

Where two headings read alike, the source gives them in different places.

The test system of data set [1] is −1 receptor (sigma-1). Particulars: guinea-pig brain membranes.
The test system of data set [2] is −1 receptor (sigma-1). Particulars: rat brain homogenates.

Usually Ki stands for the equilibrium dissociation constant of an inhibitor or competing ligand from its target. In the case of `CCCc1ccc2c(c1)sc(=O)n2CCN1CCCCCC1` [Compound 1], in data set [1], the “selectivity over −2 receptor” value is “over 1000 fold”. In addition, the Ki in data set [1] (read-out: Ki for −1 receptor) is 0.56 nM.
As to `O=c1sc2cc(CCCF)ccc2n1CCN1CCCCCC1` [Compound 2], in data set [2], the “selectivity over −2 receptor” value is listed as > 100,000 fold. In addition, the Ki in data set [2] (read-out: Ki for −1 receptor) was 0.0025 nM.
